Laboratory results published in EP0345931A1 (SCHERING CORPORATION, priority 1988, dated 1989).
Where two headings read alike, the source gives them in different places.

How the values were obtained:
PAF-induced bronchospasm = PAF-induced bronchospasm in guinea pigs; format: in vivo; details: Cavia porcellus
[1] = tested on: ovalbumin-induced lethality (anaphylactic death); experiment: Anaphylactic death in ovalbumin-sensitized mice; format: in vivo, Swiss-Weber female CFW mice; details: for protecting sensitized animals from death: i.p. at doses as high as 50 mg/kg (A) and 20 mg/kg (B); for protecting sensitized animals from death / protection of sensitized animals from death / protection against allergic death (anaphylactic shock) / ovalbumin-induced lethality: result in words; for protection of sensitized animals from death: antihistamines given individually; for protection against allergic death (anaphylactic shock) / ovalbumin-induced lethality: ovalbumin sensitized mice
Experimental: Swiss-Weber female CFW mice (20-30 g) from Charles River were acclimatized for 7-14 days. Animals were sensitized by injecting intraperitoneally 0.5 ml of saline containing 1.6 mg of ovalbumin adsorbed to 100 mg of Al(OH)₃ gel. Ten to 15 days after sensitization, the animals, at least six per group, were injected intraveneously through the tail vein with 1.6 mg of ovalbumin in 0.5 ml of saline. One hundred percent of the sensitized animals died within 10-20 minutes. Injection of ovalbumin into normal mice caused no lethality. […] The compositions (given in dosages listed in the left-hand column of Table II below) were administered intraperitoneally either individually or in indicated combinations 30 minutes before challenge with albumin to sensitized mice. Death was recorded 1 hour after the challenge.

PAF-induced lethality = PAF-induced lethality in mice; format: in vivo, Swiss-Webster female CFW mice; details: for ED50: Mus musculus, read-out: ED₅₀; for % Lethality: death recorded 1 hour after challenge; for effect on PAF-induced mortality: result in words
Experimental: Swiss-Webster female CFW mice (from Charles River), 5-10 per group, were injected through the tail vein with PAF in 0.5 ml of saline containing bovine serum albumin, and death was recorded.

PAF-acether = details: BN 52021 2 mg/kg p.o. alone (non-active dose); cited from earlier work
[2] = compound 5 mg/kg i.p. 30 minutes before i.v. PAF (200 µg/kg)
[3] = compound 10 mg/kg i.p. 30 minutes before i.v. PAF (200 µg/kg)

Row | Compound | ED50 (PAF-induced bronchospasm; iv, read-out: ED₅₀'s (i.v.)) | protecting sensitized animals from death [1] | ED50 (PAF-induced lethality) | % Lethality (PAF-induced lethality; [2]) | % Lethality (PAF-induced lethality; [3]) | protection of sensitized animals from death [1] | protection against allergic death (anaphylactic shock) / ovalbumin-induced lethality [1] | effect on PAF-induced mortality (PAF-induced lethality) | other results
1 | COc1cc([C@H]2CC[C@H](c3cc(OC)c(OC)c(OC)c3)O2)cc(OC)c1OC (relative stereo) [A, trans-2,5-bis(3,4,5-trimethoxyphenyl)tetrahydrofuran] | 0.4 mg/kg | totally ineffective | 20 mg/kg | 84% | 72% |  |  |  | % Survival ([1]; A 50 mg/kg i.p. 30 minutes before ovalbumin challenge, death recorded 1 hour after, pooled data from five experiments): 0%; % Lethality (PAF-induced lethality; compound 25 mg/kg i.p. 30 minutes before i.v. PAF (200 µg/kg)): 25%; % Lethality (PAF-induced lethality; compound 50 mg/kg i.p. 30 minutes before i.v. PAF (200 µg/kg)): 16%
2 | Cc1nnc2n1-c1sc(CCC(=O)N3CCOCC3)cc1C(c1ccccc1Cl)=NC2 [B, 4-(2-chlorophenyl)-9-methyl-6H-thieno[3,2-f][1,2,4]triazolo[4,3-a][1,4]diazepine-2-propionic acid morpholide] |  | totally ineffective | 1.5 mg/kg | 16% | 0% |  |  |  | ED50 (PAF-induced bronchospasm; po, PAF-induced bronchospasm, read-out: ED₅₀ (p.o.)): 0.1 mg/kg; % Survival ([1]; B 5 mg/kg i.p. 30 minutes before ovalbumin challenge, death recorded 1 hour after, pooled data from five experiments): 0%; % Lethality (PAF-induced lethality; compound 1 mg/kg i.p. 30 minutes before i.v. PAF (200 µg/kg)): 84%; % Lethality (PAF-induced lethality; compound 2 mg/kg i.p. 30 minutes before i.v. PAF (200 µg/kg)): 20%
3 | C[C@@H]1C(=O)O[C@H]2[C@@H](O)[C@@]34[C@H]5C[C@@H](C(C)(C)C)[C@]36[C@@H](OC(=O)[C@@H]6O)O[C@@]4(C(=O)O5)[C@@]12O [BN 52021, ginkgolide B] |  |  |  |  |  |  |  |  | change of bronchospasm (PAF-acether): -10%
4 | CN1CCC(=C2c3ccccc3CC(=O)c3sccc32)CC1 [D, ketotifen] |  |  |  |  |  | significant protection | only partial protection | Neither chlorpheniramine, clemastine nor ketotifen affected PAF-induced mortality | % Survival ([1]; D 0.1 mg/kg i.p. 30 minutes before ovalbumin challenge, pooled data): 40%; % Lethality (PAF-induced lethality; compound 1.4 mg/kg i.p. 30 minutes before i.v. PAF (200 µg/kg)): 100%
5 | CN1CCC[C@@H]1CCO[C@](C)(c1ccccc1)c1ccc(Cl)cc1 [E, clemastine] |  |  |  |  |  | significant protection | only partial protection | Neither chlorpheniramine, clemastine nor ketotifen affected PAF-induced mortality | % Survival ([1]; E 0.2 mg/kg i.p. 30 minutes before ovalbumin challenge, pooled data): 45%
6 | Cc1nnc2n1-c1ccc(Cl)cc1C(c1ccccc1)=NC2 [alprazolam, 8-chloro-1-methyl-6-phenyl-4H-3-triazolo[4,3-a][1,2]-benzodiazepine] | 3 mg/kg |  |  |  |  |  |  |  | 
